Data published in PubChem BioAssay (NCI).
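A five-concentration, 48-hour dose response in 96-well plates underlies each endpoint, interpolated linearly between surrounding concentrations. GI50: concentration for 50% inhibition of growth. Definition used: TGI = concentration required for complete inhibition of growth.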

Columns and labels:
Assay in all cases: growth of human tumour cells (NCI), 48 h
[1] = system: HCT-116 colon
[2] = system: SNB-19 CNS
[3] = system: M14 melanoma
[4] = system: MDA-MB-231 breast
[5] = system: HL-60(TB) leukemia
[6] = system: 786-0 renal
[7] = system: MDA-N
[8] = system: SK-MEL-2 melanoma
[9] = system: BT-549 breast
[10] = system: HS 578T breast
[11] = system: OVCAR-8 ovarian

Structure (SMILES)	TGI [1] [µM]	TGI [2] [µM]	TGI [3] [µM]	TGI [4] [µM]	TGI [5] [µM]	TGI [6] [µM]	TGI [7] [µM]	TGI [8] [µM]	TGI [9] [µM]	TGI [10] [µM]	TGI [11] [µM]	GI50 [2] [µM]	GI50 [4] [µM]	GI50 [5] [µM]	GI50 [8] [µM]	GI50 [9] [µM]	GI50 [1] [µM]	GI50 [3] [µM]	GI50 [10] [µM]	GI50 [11] [µM]
CCOC(=O)c1c(CN2CCNCC2)nc2ccccc2c1-c1ccccc1	23.7	33.6	28.2	29.3	30.6	25.3	23.3	29.3	31.9	35.9	30.6									
C/C=C\C(CC(=O)NCCc1cn(C(=O)OCc2ccccc2)c2ccccc12)CC(=O)OC (stereo not drawn)	> 100	> 100	> 100	> 100		> 100	> 100	> 100	> 100	> 100	> 100									
COC(=O)[C@H]1[C@@H](C(C)C)O[C@@H](C(C)C)O[C@H]1C(F)(F)F	> 100	> 100	> 100	> 100	> 100	> 100	> 100		> 100	> 100	> 100									
Cc1cc(O)c(C(C)C)cc1SC#N				37.9	> 100			35.7	36.4	67.4	88.9									
COc1nc(N(C)C)nc2c1n(C)c[n+]2C	> 100	> 100	> 100	> 100	> 100	> 100	> 100	> 100	> 100	> 100	> 100									
N/N=C1/C2CN3CCN(C2)CC1(c1ccc([N+](=O)[O-])cc1)C3	> 100	> 100		> 100	> 100	> 100	> 100	> 100	> 100	> 100	> 100									
O=[N+]([O-])c1ccc2nc(-c3ccccn3)c(-c3ccccn3)nc2c1	> 100	> 100	> 100		> 100	> 100	> 100	> 100	> 100	> 100	> 100									
c1ccc(CCN2CCc3[nH]c4ccccc4c3C2)cc1	28.7	41.8	34	87.7	41.7	31.6					44.7									
COc1cc2nc(-c3ccc4ccccc4c3)[nH]c(=O)c2cc1OC	> 100	97.2	> 100	> 100	> 100	> 100	> 100	> 100	> 100	> 100	> 100									
NC(=S)N/N=C\c1ccc(OCc2cccc(COc3ccc(/C=N/NC(N)=S)cc3)n2)cc1	> 100	> 100	> 100	76	> 100	> 100	> 100	38.1	12.2	> 100	> 100									
CC1OC2=N[C@@H]1C(=O)N[C@@H](C(C)C)C1=N[C@H](C(=O)N[C@@H](C(C)C)C3=N[C@H](C(=O)N[C@@H](C(C)C)C4=N[C@H](C(=O)N[C@H]2C(C)C)C(C)O4)C(C)O3)C(C)O1 (stereo partly drawn)		> 10	> 10	> 10	> 10	> 10	> 10	> 10		> 10	> 10									
Cn1nc2n(c1=O)CCCN2	> 100	> 100		> 100	> 100	> 100	> 100			> 100	> 100									
C/C(=C\c1ccccn1)c1ccccn1	> 100	> 100	> 100	> 100		> 100	> 100	> 100	> 100	> 100	> 100									
CC1(C)OCC(C(O)C2OC(C)(C)OC2C=O)O1 (stereo not drawn)	> 100	> 100	> 100	> 100		> 100	> 100	> 100		> 100	> 100									
Clc1ccc(N2N=C(c3cccc(Nc4ccncc4)c3)CC2c2ccc3c(c2)OCO3)cc1 (stereo not drawn)		4.51		2.64	4.16			4.59	28.6			1.94	1.29	1.93	2.09	4.92				
O=C(NCc1cccc(C(F)(F)F)c1)c1cc2sccc2nc1C(F)(F)F	> 100	> 100	> 100	> 100		73.7	> 100	> 100	> 100	94.1	> 100									
C/C(=N\NC(=S)N1CCCCC1)c1cccc(C)n1		> 36	0.394	16.5		1.19	20.3	22.4	5.5	> 100	2.1									
Nc1nc(-c2ccccc2N=NN2CCCC2)nc2ccccc12	2.55	16.5	12.5	3.63		4.77		28.8	24.1	18	3.77									
COc1cc2c(cc1OCCCC(=O)Nc1cc(C(=O)Nc3cc(C(=O)Nc4cc(C(=O)NCCCN(C)C)n(C)n4)n(C)n3)n(C)n1)N=CC1CCCN1C2=O (stereo not drawn)	> 100	54.4	95.2	55.5	> 100	> 100		48	37.5	79.7	> 100									
Cc1cc(/C=C\c2ccc3ccccc3[n+]2C)c(O)c2ncccc12	1.41	27.4	1.11	1.9				> 100	4.63	7.5	> 100	0.494	0.259	0.125	3.03	0.26	0.116	0.167	0.681	0.399
OCC1OC(n2cnc3cncnc32)C(O)C1O (stereo not drawn)	1.23	4.27			1.73			3.41			3.17									
